{"source": "patent US5985926A", "about": "“Method for inhibiting intracellular viral replication” (Cell Therapeutics, Inc., priority 1997, dated 1999)", "tested_on": "HIV-LTR promoter (tat transactivation) in 293-EBNA cells", "test": "AP reporter gene expression from HIV-LTR promoter with tat expression vector, 293-EBNA cells", "format": "cell-based, HIV; human cells", "details": "293-EBNA cells, HIV promoter, in words", "outline": "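293-EBNA cells were transiently co-transfected with an HIV-LTR-driven secreted placental alkaline phosphatase reporter and a tat(1–72) expression plasmid. At 24 h, the medium was switched to serum-free AIM V before compounds were added at various concentrations. Secreted AP activity was read colorimetrically at 405 nm 19–24 h later.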"}
{"smiles": "CCCCCCCCNCC(O)CCCCCCCCCN1C(=O)CCN(C)C1=O", "note": "(stereo not shown) [CT1829, 3-(11-octylamino-10-hydroxyundecyl)-1-methyldihydrouracil]", "values": [{"measurement": "inhibition of AP expression (HIV-LTR promoter)", "result": "inhibit HIV promoter driven expression"}]}
